Data taken from patent US10435406B2, “6,7-cyclicmorphinan derivatives and use thereof” (Purdue Pharma L.P., priority 2014, dated 2019).

Columns and labels:
Format in all cases: biochemical
κ opioid receptor [1] = biological target: T1, κ opioid receptor (Homo sapiens (Human), UniProt P41145); assay: κ-opioid receptor [35S]GTPγS functional assay (U-2 OS); conditions: for Emax: U2OS, GTPγS, relative to U69,593
Experimental: (§1) Functional [^35S]GTPγS binding assays were conducted as follows. K opioid receptor membrane solution was prepared by sequentially adding final concentrations of 0.026 μg/μl membrane protein (in-house), 10 μg/mL saponin, 3 μM GDP and 0.20 nM [^35S]GTPγS to binding buffer (100 mM NaCl, 10 mM MgCl2, 20 mM HEPES, pH 7.4) on ice. The prepared membrane solution (190 μl/well) was transferred to 96-shallow well polypropylene plates containing 10 μl of 20× concentrated stock solutions of agonist prepared in DMSO. Plates were incubated for 30 min at a temperature of about 25° C. with shaking. Reactions were terminated by rapid filtration onto 96-well Unifilter GF/B filter plates (Perkin Elmer, Shelton, Conn.) using a 96-well tissue harvester (Packard) and followed by three filtration washes with 200 μl ice-cold binding buffer (10 mM NaH2PO4, 10 mM Na2HPO4, pH 7.4). Filter plates were subsequently dried at 50° C. for 2-3 hours. Fifty μl/well scintillation cocktail (Perkin Elmer, Shelton, Conn.) was added and plates were counted in a Packard Top-Count for 1 min/well.
(§2) GTP EC50 is the concentration of a compound providing 50% of the maximal response for the compound at a κ receptor.
(§3) κ GTP Emax (%) is the maximal effect elicited by a compound relative to the effect elicited by U69,593.
(§4) In TABLE 4, activity response of certain Compounds of the Invention to the μ- and κ-opioid receptors was determined as described above for functional assays using U-2 OS cells.

μ-opioid receptor [2] = biological target: T2, μ-opioid receptor (Homo sapiens (Human), UniProt P35372); assay: μ-opioid receptor [35S]GTPγS functional assay (HEK); conditions: for Emax: relative to DAMGO
Experimental: (§5) [^35S]GTPγS functional assays were conducted using freshly thawed μ-receptor membranes prepared in-house from a cell line expressing recombinant μ opioid receptor in a HEK-293, CHO or U-2 OS cell background, or purchased from a commercial source (Perkin Elmer, Shelton, Conn.; or DiscovRx, Fremont, Calif.). Assay reactions were prepared by sequentially adding the following reagents to binding buffer (100 mM NaCl, 10 mM MgCl2, 20 mM HEPES, pH 7.4) on ice (final concentrations indicated): membrane protein (0.026 mg/mL), saponin ([…]), GDP ([…]) and [^35S]GTPγS (0.20 nM; Perkin Elmer, Shelton, Conn.). The prepared membrane solution (190 μl/well) was transferred to 96-shallow well polypropylene plates containing 10 μl of 20× concentrated stock solutions of the agonist [D-Ala^2, N-methyl-Phe^4 Gly-ol^5]-enkephalin (DAMGO) prepared in dimethyl sulfoxide (DMSO). Plates were incubated for […] at about 25° C. with shaking. Reactions were terminated by rapid filtration onto 96-well Unifilter GF/B filter plates (Perkin Elmer, Shelton, Conn.) using a 96-well tissue harvester (Perkin Elmer, Shelton, Conn.) followed by three filtration washes with 200 μl of ice-cold wash buffer (10 mM NaH2PO4, 10 mM Na2HPO4, pH 7.4). Filter plates were subsequently dried at 50° C. for 2-3 hours. BetaScint scintillation cocktail (Perkin Elmer, Shelton, Conn.) was added (50 μl/well) and plates were counted using a Packard Top-Count for 1 min/well. Data were analyzed using the sigmoidal dose-response curve fitting functions in GraphPad PRISM v. 3.0, or an in-house function for non-linear, sigmoidal dose-response curve-fitting.
(§6) μ GTP EC50 is the concentration of a compound providing 50% of the maximal response for the compound at a μ-opioid receptor.
(§7) μ GTP Emax (%) is the maximal effect elicited by a compound relative to the effect elicited by DAMGO, a standard agonist. Generally, the μ GTP Emax (%) value measures the efficacy of a compound to treat or prevent pain or other Conditions.
(§8) In TABLE 3, activity response of certain Compounds of the Invention to the μ- and κ-opioid receptors was determined as described above for functional assays using HEK cells.

μ-opioid receptor [3] = biological target: T2, μ-opioid receptor; assay: μ-opioid receptor [35S]GTPγS functional assay (U-2 OS); conditions: for Emax: U2OS, GTPγS, relative to DAMGO
Experimental: as §5, §6, §7, §4

κ opioid receptor [4] = biological target: T1, κ opioid receptor; assay: κ-opioid receptor [35S]GTPγS functional assay (HEK); conditions: for Emax: HEK, GTPγS, relative to U69,593
Experimental: as §1, §2, §3, §8

Structure (SMILES) | EC50 (κ opioid receptor [1]) [nM] | Emax (κ opioid receptor [1]) [%] | EC50 (μ-opioid receptor [2]) [µM] | Emax (μ-opioid receptor [2]; HEK, GTPγS) [%] | EC50 (μ-opioid receptor [3]) [nM] | Emax (μ-opioid receptor [3]) [%] | EC50 (κ opioid receptor [4]) [nM] | Emax (κ opioid receptor [4]) [%] | EC50 (μ-opioid receptor [2]; HEK, GTPγS, bound given in μM, read-out: μ EC50) [µM]
CCN1C(=O)C[C@@H]2C[C@@]3(O)[C@H]4Cc5ccc(OC)cc5[C@@]3(CCN4CC3CC3)C[C@@H]21 [Compound 11, (6R,6aS,7aS,10aS,11aR)-14-(cyclopropylmethyl)-10-ethyl-6a-hydroxy-2-methoxy-5,6,6a,7,7a,8,10a,11-octahydro-6,11a-(epiminoethano)naphtho[2,1-f]indol-9(10H)-one] | 16.9 ± 1.96 | 107 ± 3.94 | 0.625 ± 0.0326 | 36.4 ± 2.23 | 204 ± 11.2 | 78 ± 3 | – | – | –
CN1C(=O)C[C@@H]2C[C@@]3(O)[C@H]4Cc5ccc(O)cc5[C@@]3(CCN4CC3CC3)C[C@@H]21 [Compound 12, (6R,6aS,7aS,10aS,11aR)-14-(cyclopropylmethyl)-2,6a-dihydroxy-10-methyl-5,6,6a,7,7a,8,10a,11-octahydro-6,11a-(epiminoethano)naphtho[2,1-f]indol-9(10H)-one] | – | – | 0.00218 ± 2.1e-05 | 29.3 ± 0.33 | – | – | 0.66 ± 0.014 | 106 ± 6.78 | –
O=C1C=C2C[C@@]3(O)[C@H]4Cc5ccc(O)cc5[C@]3(C=C2N1CC1CC1)CCN4CC1CC1 [Compound 18, (6R,6aS,11aR)-10,14-bis(cyclopropylmethyl)-2,6a-dihydroxy-5,6,6a,7-tetrahydro-6,11a-(epiminoethano)naphtho[2,1-f]indol-9(10H)-one] | – | – | > 20 | 6 | – | – | – | – | –
COc1ccc2c(c1)[C@]13CCN(C)[C@H](C2)[C@]1(O)C[C@@H]1NC(=O)O[C@@H]1C3 [Compound 19, (6R,6aS,7aS,10aR,11aR)-6a-hydroxy-2-methoxy-14-methyl-5,6,6a,7,7a,8,10a,11-octahydro-9H-6,11a-(epiminoethano)phenanthro[2,3-d]oxazol-9-one] | – | – | > 20 | 2 ± 0.58 | – | – | – | – | –
CN1CC[C@]23C[C@@H]4OC(=O)N[C@H]4C[C@@]2(O)[C@H]1Cc1ccc(O)cc13 [Compound 20, (6R,6aS,7aS,10aS,11aR)-2,6a-dihydroxy-14-methyl-5,6,6a,7,7a,8,10a,11-octahydro-9H-6,11a-(epiminoethano)phenanthro[2,3-d]oxazol-9-one] | – | – | 1.31 | 12.4 ± 0.77 | – | – | – | – | –
O=C1C[C@@H]2C[C@@]3(O)[C@H]4Cc5ccc(O)cc5[C@@]3(CCN4CC[C@@]3(c4ccccn4)CCOC4(CCCC4)C3)C[C@@H]2N1 [Compound 7, (6R,6aS,7aS,10aS,11aR)-2,6a-dihydroxy-14-(2-((R)-9-(pyridin-2-yl)-6-oxaspiro-[4.5]decan-9-yl)ethyl)-5,6,6a,7,7a,8,10a,11-octahydro-6,11a-(epiminoethano)-naphtho[2,1-f]indol-9(10H)-one] | – | – | – | 4.5 | – | – | – | – | > 20
O=C1C[C@@H]2C[C@@]3(O)[C@H]4Cc5ccc(O)cc5[C@@]3(CCN4CCCc3ccccc3)C[C@@H]2N1 [Compound 4, (6R,6aS,7aS,10aS,11aR)-2,6a-dihydroxy-14-(3-phenylpropyl)-5,6,6a,7,7a,8,10a,11-octahydro-6,11a-(epiminoethano)naphtho[2,1-f]indol-9(10H)-one] | – | – | 0.321 ± 0.0206 | 47.3 ± 7.26 | – | – | – | – | –
COc1ccc2c(c1)[C@]13CCN(CC4CC4)[C@H](C2)[C@]1(O)C[C@H]1CC(=O)N(C)[C@H]1C3 [Compound 15, (6R,6aS,7aS,10aS,11aR)-14-(cyclopropylmethyl)-6a-hydroxy-2-methoxy-10-methyl-5,6,6a,7,7a,8,10a,11-octahydro-6,11a-(epiminoethano)naphtho[2,1-f]indol-9(10H)-one] | 113 ± 36.3 | 129 ± 5 | 0.863 ± 0.0697 | 23.6 ± 2.32 | 349 ± 26.3 | 75 ± 3 | – | – | –
O=C1C[C@@H]2C[C@@]3(O)[C@H]4Cc5ccc(O)cc5[C@@]3(CCN4CC3CCOCC3)C[C@@H]2N1 [Compound 6, (6R,6aS,7aS,10aS,11aR)-2,6a-dihydroxy-14-((tetrahydro-2H-pyran-4-yl)methyl)-5,6,6a,7,7a,8,10a,11-octahydro-6,11a-(epiminoethano)naphtho[2,1-f]indol-9(10H)-one] | – | – | 1.47 | 7.33 ± 0.88 | – | – | – | – | –
COc1ccc2c(c1)[C@]13CCN(CC4CC4)[C@H](C2)[C@]1(O)C[C@H]1CC(=O)N(CC(C)C)[C@H]1C3 [Compound 13, (6R,6aS,7aS,10aS,11aR)-14-(cyclopropylmethyl)-6a-hydroxy-10-isobutyl-2-methoxy-5,6,6a,7,7a,8,10a,11-octahydro-6,11a-(epiminoethano)naphtho[2,1-f]indol-9(10H)-one] | 19.5 ± 1.37 | 106 ± 2.4 | 0.224 ± 0.0346 | 13.2 ± 1.39 | 82.2 ± 1.71 | 55 ± 2 | – | – | –
COc1ccc2c(c1)[C@]13CCN(CC4CC4)[C@H](C2)[C@]1(O)CC1=CC(=O)NC1C3 (stereo partly drawn) [Compound 8, (6R,6aS,11aR)-14-(cyclopropylmethyl)-6a-hydroxy-2-methoxy-5,6,6a,7,10a,11-hexahydro-6,11a-(epiminoethano)naphtho[2,1-f]indol-9(10H)-one] | 585 ± 29.3 | 115 ± 3.53 | > 20 | -0.33 ± 0.67 | 846 ± 72.5 | 49 ± 1 | 1750 ± 197 | 66.7 ± 1.33 | –
COc1ccc2c(c1)[C@]13CCN(C)[C@H](C2)[C@]1(O)C[C@H]1CC(=O)N[C@H]1C3 [Compound 3, (6R,6aS,7aS,10aS,11aR)-6a-hydroxy-2-methoxy-14-methyl-5,6,6a, 7,7a,8,10a,11-octahydro-6,11a-(epiminoethano)naphtho[2,1-f]indol-9(10H)-one] | > 20000 | 108 ± 9.39 | 2.28 | 106 ± 0.58 | 92.9 ± 6.03 | 102.7 ± 0.67 | 18800 ± 4870 | 52 ± 6.11 | –
COc1ccc2c(c1)[C@]13CCN(CC4CC4)[C@H](C2)[C@]1(O)C[C@H]1CC(=O)N(CC2CC2)[C@H]1C3 [Compound 14, (6R,6aS,7aS,10aS,11aR)-10,14-bis(cyclopropylmethyl)-6a-hydroxy-2-methoxy-5,6,6a,7,7a,8,10a,11-octahydro-6,11a-(epiminoethano)naphtho[2,1-f]indol-9(10H)-one] | 16.6 ± 1.93 | 101.8 ± 0.63 | 0.146 ± 0.0211 | 13.2 ± 0.95 | 49.5 ± 3.87 | 43.7 ± 4.7 | – | – | –
O=C1C[C@@H]2C[C@@]3(O)[C@H]4Cc5ccc(O)cc5[C@@]3(CCN4CC3CC3)C[C@@H]2N1CC1CC1 [Compound 17, (6R,6aS,7aS,10aS,11aR)-10,14-bis(cyclopropylmethyl)-2,6a-dihydroxy-5,6,6a,7,7a,8,10a,11-octahydro-6,11a-(epiminoethano)-naphtho[2,1-f]indol-9(10H)-one] | – | – | > 20 | 1 | – | – | – | – | –
COc1ccc2c(c1)[C@]13CCN(C)[C@H](C2)[C@]1(O)CC1=CC(=O)N[C@H]1C3 [Compound 2, (6R,6aS,10aS,11aR)-6a-hydroxy-2-methoxy-14-methyl-5,6,6a,7,10a,11-hexahydro-6,11a-(epiminoethano)naphtho[2,1-f]indol-9(10H)-one] | > 20000 | 84.7 ± 2.73 | 12.3 ± 0.615 | 51.8 ± 0.39 | 738 ± 59 | 103.3 ± 0.67 | – | – | –
